According to ChEMBL document CHEMBL4017512 (J Med Chem, 2017):
pIC50: −log10 of the molar value.

How the values were obtained:
HCT-116 = test: Antiproliferative activity against human HCT116 cells after 72 hrs by phosphatase assay; format: functional, cell-based; settings: HCT-116, 72 h
[1] = Cytotoxicity against human HCT116/VM46 cells assessed as reduction in cell viability after 72 hrs by phosphatase assay; format: cell-based; settings: HCT-116/VM46, 72 h
L1210 = test: Antiproliferative activity against mouse L1210 cells after 72 hrs by phosphatase assay; format: functional, cell-based; settings: L1210, 72 h

Row | SMILES | pIC50 (HCT-116) | pIC50 (L1210) | pIC50 [1]
1 | CC[C@]1(NC(=O)c2ccc(C(C)(C)C)cc2)C[C@H]2CN(CCc3c([nH]c4ccccc34)[C@@](C(=O)OC)(c3cc4c(cc3OC)N(C)[C@H]3[C@@](O)(C(=O)OC)[C@H](OC(C)=O)[C@]5(CC)C=CCN6CC[C@]43[C@@H]65)C2)C1 | 8.72 | 9.22 | 7.26
2 | CC[C@]1(NC(=O)c2ccc3c(c2)CCC3)C[C@H]2CN(CCc3c([nH]c4ccccc34)[C@@](C(=O)OC)(c3cc4c(cc3OC)N(C)[C@H]3[C@@](O)(C(=O)OC)[C@H](OC(C)=O)[C@]5(CC)C=CCN6CC[C@]43[C@@H]65)C2)C1 | 8.25 | 8.30 | 7.96
3 | CC[C@]1(NC(=O)c2ccc3cc4ccccc4cc3c2)C[C@H]2CN(CCc3c([nH]c4ccccc34)[C@@](C(=O)OC)(c3cc4c(cc3OC)N(C)[C@H]3[C@@](O)(C(=O)OC)[C@H](OC(C)=O)[C@]5(CC)C=CCN6CC[C@]43[C@@H]65)C2)C1 | 7.22 | 7.40 | 6.82
4 | CC[C@]1(NS(=O)(=O)c2ccc3ccccc3c2)C[C@H]2CN(CCc3c([nH]c4ccccc34)[C@@](C(=O)OC)(c3cc4c(cc3OC)N(C)[C@H]3[C@@](O)(C(=O)OC)[C@H](OC(C)=O)[C@]5(CC)C=CCN6CC[C@]43[C@@H]65)C2)C1 | 7.22 | 7.30 | 6.36
5 | CCOc1ccc(C(=O)N[C@@]2(CC)C[C@H]3CN(CCc4c([nH]c5ccccc45)[C@@](C(=O)OC)(c4cc5c(cc4OC)N(C)[C@H]4[C@@](O)(C(=O)OC)[C@H](OC(C)=O)[C@]6(CC)C=CCN7CC[C@]54[C@@H]76)C3)C2)cc1OCC | 9.30 | 9.40 | 8.22
6 | CC[C@]1(NC(=O)c2cnc3ccccc3n2)C[C@H]2CN(CCc3c([nH]c4ccccc34)[C@@](C(=O)OC)(c3cc4c(cc3OC)N(C)[C@H]3[C@@](O)(C(=O)OC)[C@H](OC(C)=O)[C@]5(CC)C=CCN6CC[C@]43[C@@H]65)C2)C1 | 8.23 | 8.21 | 7.22
7 | CC[C@]1(NC(=O)C2CCc3ccccc3C2)C[C@H]2CN(CCc3c([nH]c4ccccc34)[C@@](C(=O)OC)(c3cc4c(cc3OC)N(C)[C@H]3[C@@](O)(C(=O)OC)[C@H](OC(C)=O)[C@]5(CC)C=CCN6CC[C@]43[C@@H]65)C2)C1 (some centres not stated) | 6.24 | 6.38 | 6.02
8 | CC[C@]1(NC(=O)c2ccccn2)C[C@H]2CN(CCc3c([nH]c4ccccc34)[C@@](C(=O)OC)(c3cc4c(cc3OC)N(C)[C@H]3[C@@](O)(C(=O)OC)[C@H](OC(C)=O)[C@]5(CC)C=CCN6CC[C@]43[C@@H]65)C2)C1 | 7.30 | 7.26 | 6.34
9 | CC[C@]1(NC(=O)c2cc(C)cc(C)c2)C[C@H]2CN(CCc3c([nH]c4ccccc34)[C@@](C(=O)OC)(c3cc4c(cc3OC)N(C)[C@H]3[C@@](O)(C(=O)OC)[C@H](OC(C)=O)[C@]5(CC)C=CCN6CC[C@]43[C@@H]65)C2)C1 | 8.22 | 8.27 | 8.04
10 | CC[C@]1(NC(=O)c2ccc(C(C)C)cc2)C[C@H]2CN(CCc3c([nH]c4ccccc34)[C@@](C(=O)OC)(c3cc4c(cc3OC)N(C)[C@H]3[C@@](O)(C(=O)OC)[C@H](OC(C)=O)[C@]5(CC)C=CCN6CC[C@]43[C@@H]65)C2)C1 | 8.19 | 8.27 | 7.89
11 | CC[C@]1(NC(=O)c2ccc(OC)c(OC)c2)C[C@H]2CN(CCc3c([nH]c4ccc(F)cc34)[C@@](C(=O)OC)(c3cc4c(cc3OC)N(C)[C@H]3[C@@](O)(C(=O)OC)[C@H](OC(C)=O)[C@]5(CC)C=CCN6CC[C@]43[C@@H]65)C2)C1 | 10.10 | 10.22 | 9.05
12 | CC[C@]1(NC(=O)c2ccc(OC(F)(F)F)cc2)C[C@H]2CN(CCc3c([nH]c4ccc(F)cc34)[C@@](C(=O)OC)(c3cc4c(cc3OC)N(C)[C@H]3[C@@](O)(C(=O)OC)[C@H](OC(C)=O)[C@]5(CC)C=CCN6CC[C@]43[C@@H]65)C2)C1 | 9.15 | 9.22 | 9.00
13 | CC[C@]1(NC(=O)c2cccc(S(=O)(=O)F)c2)C[C@H]2CN(CCc3c([nH]c4ccccc34)[C@@](C(=O)OC)(c3cc4c(cc3OC)N(C)[C@H]3[C@@](O)(C(=O)OC)[C@H](OC(C)=O)[C@]5(CC)C=CCN6CC[C@]43[C@@H]65)C2)C1 | 7.52 | 7.40 | 6.24

Second part, led by results:

Row | pIC50 (HCT-116) | pIC50 (L1210) | SMILES | pIC50 [1]
14 | 8.20 | 8.25 | CC[C@]1(NC(=O)c2cscn2)C[C@H]2CN(CCc3c([nH]c4ccccc34)[C@@](C(=O)OC)(c3cc4c(cc3OC)N(C)[C@H]3[C@@](O)(C(=O)OC)[C@H](OC(C)=O)[C@]5(CC)C=CCN6CC[C@]43[C@@H]65)C2)C1 | 7.10
15 | 9.22 | 9.30 | CC[C@]1(NC(=O)c2ccc3ncsc3c2)C[C@H]2CN(CCc3c([nH]c4ccccc34)[C@@](C(=O)OC)(c3cc4c(cc3OC)N(C)[C@H]3[C@@](O)(C(=O)OC)[C@H](OC(C)=O)[C@]5(CC)C=CCN6CC[C@]43[C@@H]65)C2)C1 | 7.70
16 | 8.37 | 8.27 | CC[C@]1(NC(=O)c2ccc(C)c(NC(C)=O)c2)C[C@H]2CN(CCc3c([nH]c4ccccc34)[C@@](C(=O)OC)(c3cc4c(cc3OC)N(C)[C@H]3[C@@](O)(C(=O)OC)[C@H](OC(C)=O)[C@]5(CC)C=CCN6CC[C@]43[C@@H]65)C2)C1 | 6.48
17 | 8.38 | 8.51 | CC[C@]1(NC(=O)c2cc(Cl)c(OC)c(Cl)c2)C[C@H]2CN(CCc3c([nH]c4ccccc34)[C@@](C(=O)OC)(c3cc4c(cc3OC)N(C)[C@H]3[C@@](O)(C(=O)OC)[C@H](OC(C)=O)[C@]5(CC)C=CCN6CC[C@]43[C@@H]65)C2)C1 | 7.60
18 | 9.22 | 9.22 | CC[C@]1(NC(=O)c2ccc3ncccc3c2)C[C@H]2CN(CCc3c([nH]c4ccccc34)[C@@](C(=O)OC)(c3cc4c(cc3OC)N(C)[C@H]3[C@@](O)(C(=O)OC)[C@H](OC(C)=O)[C@]5(CC)C=CCN6CC[C@]43[C@@H]65)C2)C1 | 8.31
19 | 8.66 | 8.40 | CC[C@]1(NC(=O)c2cncn2C)C[C@H]2CN(CCc3c([nH]c4ccccc34)[C@@](C(=O)OC)(c3cc4c(cc3OC)N(C)[C@H]3[C@@](O)(C(=O)OC)[C@H](OC(C)=O)[C@]5(CC)C=CCN6CC[C@]43[C@@H]65)C2)C1 | 7.10
20 | 8.21 | 8.21 | CC[C@]1(NC(=O)c2ccc([N+](=O)[O-])cc2)C[C@H]2CN(CCc3c([nH]c4ccccc34)[C@@](C(=O)OC)(c3cc4c(cc3OC)N(C)[C@H]3[C@@](O)(C(=O)OC)[C@H](OC(C)=O)[C@]5(CC)C=CCN6CC[C@]43[C@@H]65)C2)C1 | 7.22
21 | 8.00 | 7.60 | CC[C@]1(NC(=O)c2ccc(CC(C)C)cc2)C[C@H]2CN(CCc3c([nH]c4ccccc34)[C@@](C(=O)OC)(c3cc4c(cc3OC)N(C)[C@H]3[C@@](O)(C(=O)OC)[C@H](OC(C)=O)[C@]5(CC)C=CCN6CC[C@]43[C@@H]65)C2)C1 | 7.19
22 | 8.31 | 8.38 | CC[C@]1(NC(=O)c2ccc3sccc3c2)C[C@H]2CN(CCc3c([nH]c4ccccc34)[C@@](C(=O)OC)(c3cc4c(cc3OC)N(C)[C@H]3[C@@](O)(C(=O)OC)[C@H](OC(C)=O)[C@]5(CC)C=CCN6CC[C@]43[C@@H]65)C2)C1 | 7.80
23 | 7.82 | 7.46 | CC[C@]1(NC(=O)c2ccc3c(c2)CCN3C(=O)OC(C)(C)C)C[C@H]2CN(CCc3c([nH]c4ccccc34)[C@@](C(=O)OC)(c3cc4c(cc3OC)N(C)[C@H]3[C@@](O)(C(=O)OC)[C@H](OC(C)=O)[C@]5(CC)C=CCN6CC[C@]43[C@@H]65)C2)C1 | 7.05
24 | 8.19 | 8.21 | CC[C@]1(NC(=O)c2ccc(OC)cc2F)C[C@H]2CN(CCc3c([nH]c4ccccc34)[C@@](C(=O)OC)(c3cc4c(cc3OC)N(C)[C@H]3[C@@](O)(C(=O)OC)[C@H](OC(C)=O)[C@]5(CC)C=CCN6CC[C@]43[C@@H]65)C2)C1 | 7.15
25 | 9.15 | 9.22 | CC[C@]1(NC(=O)c2ccc3cccnc3c2)C[C@H]2CN(CCc3c([nH]c4ccccc34)[C@@](C(=O)OC)(c3cc4c(cc3OC)N(C)[C@H]3[C@@](O)(C(=O)OC)[C@H](OC(C)=O)[C@]5(CC)C=CCN6CC[C@]43[C@@H]65)C2)C1 | 8.09
26 | 8.19 | 8.38 | CCc1cc(CC)cc(C(=O)N[C@@]2(CC)C[C@H]3CN(CCc4c([nH]c5ccccc45)[C@@](C(=O)OC)(c4cc5c(cc4OC)N(C)[C@H]4[C@@](O)(C(=O)OC)[C@H](OC(C)=O)[C@]6(CC)C=CCN7CC[C@]54[C@@H]76)C3)C2)c1 | 7.18
27 | 9.15 | 9.22 | CC[C@]1(NC(=O)c2ccc3scnc3c2)C[C@H]2CN(CCc3c([nH]c4ccccc34)[C@@](C(=O)OC)(c3cc4c(cc3OC)N(C)[C@H]3[C@@](O)(C(=O)OC)[C@H](OC(C)=O)[C@]5(CC)C=CCN6CC[C@]43[C@@H]65)C2)C1 | 7.60
28 | 8.11 | 8.13 | CC[C@]1(NC(=O)c2ccc3c(c2)C(C)(C)CCC3(C)C)C[C@H]2CN(CCc3c([nH]c4ccccc34)[C@@](C(=O)OC)(c3cc4c(cc3OC)N(C)[C@H]3[C@@](O)(C(=O)OC)[C@H](OC(C)=O)[C@]5(CC)C=CCN6CC[C@]43[C@@H]65)C2)C1 | 7.30
29 | 9.22 | 9.22 | CC[C@]1(NC(=O)c2ccc(OC)c(F)c2)C[C@H]2CN(CCc3c([nH]c4ccccc34)[C@@](C(=O)OC)(c3cc4c(cc3OC)N(C)[C@H]3[C@@](O)(C(=O)OC)[C@H](OC(C)=O)[C@]5(CC)C=CCN6CC[C@]43[C@@H]65)C2)C1 | 7.52
